For 22 compounds, IC50 and IC90 results are on record in PubChem BioAssay AID434987 (Southern Research Specialized Biocontainment Screening …, 2010).

The experiment concerns M. tuberculosis H37Rv growth inhibition with meropenem. In words: dose response, H37Rv, with and without meropenem (AID 434987).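 Also: growth over 7 days at 37 °C before Alamar Blue read on day 9.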
Where [1] appears, read: M. tuberculosis H37Rv growth inhibition, measured here: IC50 without meropenem.
[2] abbreviates: M. tuberculosis H37Rv growth inhibition, measured here: IC90 without meropenem.
The mark [3] stands for this setting: measured here: IC90 with meropenem.

The source made the active and inactive calls. No rule for the calls is given here. Some results are limits rather than exact numbers.

As a reminder, the IC50 is the concentration that gives 50% inhibition. By IC90 is commonly meant the concentration needed for an effect of 90%. A higher IC90 goes with weaker potency. For `O=C(/C=C/c1cccnc1)c1ccc(O)cc1`, the IC50 is 19.8 µM (inactive). Under setting [1], this compound came in with an IC50 of 34.2 µM. For the same compound, the concentration for an effect of 90% (IC90) under setting [2] was 46.9 µM. The compound further yielded a 90% effect concentration (IC90) under setting [3] of 50.4 µM.

Turning to `CCCC(C)NC(=O)c1ccc(OCc2ccc(Cl)cc2)c(OC)c1` (stereo not drawn), the IC50 is 7.56 µM. The compound further registered a half-maximal inhibitory concentration (IC50) under setting [1] of 36.2 µM. Besides, the IC90 under setting [2] is more than 100 µM. Besides, under setting [3], the IC90 came to 11.6 µM.

As for `Cc1cccc(NC(=S)NC2CC3C=CC2C3)c1` (stereo not drawn), the IC50 is 22.3 µM (inactive). Moreover, under setting [1], the half-inhibitory concentration (IC50) amounted to 23.8 µM. Moreover, under setting [2], the 90% effect concentration (IC90) is more than 100 µM. Besides, the concentration for an effect of 90% (IC90) under setting [3] was more than 100 µM.

Take `Cc1ccc(OCC(=O)Nc2ccc3c4c(cccc24)CC3)c(C)c1`: the IC50 was 1.71 µM. Under setting [1], this compound returned an IC50 of more than 100 µM. This compound also showed an IC90 under setting [2] of more than 100 µM. Besides, under setting [3], the 90% effect concentration (IC90) was more than 100 µM.

Take `c1ccc(-c2cc3ccccc3[nH]2)cc1`: the IC50 was > 100 µM (inactive). Under setting [1], the half-inhibitory concentration (IC50) is more than 100 µM. This compound had an IC90 under setting [2] of more than 100 µM. Besides, the concentration for an effect of 90% (IC90) under setting [3] was more than 100 µM.

Turning to `O=C1C=C2C=C[C@@H]3CC2(O1)[C@H]1CCCCN31`, the IC50 was 78.1 µM (inactive). Under setting [1], the 50% inhibitory concentration (IC50) was more than 100 µM. Further, under setting [2], the concentration for an effect of 90% (IC90) is more than 100 µM. Further, the concentration for an effect of 90% (IC90) under setting [3] was more than 100 µM.

In the case of `O=C(OCC(=O)c1c[nH]c2ccccc12)c1cccc([N+](=O)[O-])c1`, the IC50 is > 100 µM (inactive). Besides, the IC50 under setting [1] was more than 100 µM. This compound had an IC90 under setting [2] of more than 100 µM. Under setting [3], this compound returned an IC90 of more than 100 µM.

In the case of `O=C(COC(=O)c1ccc(Cl)cc1[N+](=O)[O-])NNC(=O)c1cccs1`, the IC50 is 24.8 µM (inactive). This compound also had an IC50 under setting [1] of 39.4 µM. Under setting [2], this compound displayed an IC90 of 53.9 µM. Also, under setting [3], the concentration for an effect of 90% (IC90) was 51.1 µM.

For the compound `CCNc1nc(CN2CCCCC2)nc2scc(-c3ccccc3)c12`, the 50% inhibitory concentration (IC50) was 8.75 µM. The 50% inhibitory concentration (IC50) under setting [1] came to 47.2 µM. Also, the 90% effect concentration (IC90) under setting [2] is more than 100 µM. Besides, under setting [3], the IC90 was found to be 57.3 µM.

For the compound `Cc1ccc2[nH]c(O)c(N=Nc3nc4ccccc4s3)c2c1`, the IC50 was 6.76 µM. Under setting [1], this compound returned an IC50 of more than 100 µM. Also, under setting [2], the IC90 was more than 100 µM. Under setting [3], this compound had a 90% effect concentration (IC90) of more than 100 µM.

For the compound `COC(=O)c1cc(OC)c(OC)cc1NC(=O)c1ccc(OC)c(OC)c1`, the IC50 is 31.8 µM. Also, the 50% inhibitory concentration (IC50) under setting [1] was more than 100 µM. This compound also came in with a concentration for an effect of 90% (IC90) under setting [2] of more than 100 µM. Moreover, under setting [3], the concentration for an effect of 90% (IC90) was more than 100 µM.

Take `Cc1ccc(C)c(NC(=O)C(Sc2nc3ccccc3c(=O)n2CC(C)C)c2ccccc2)c1` (stereo not drawn): the IC50 is 58.8 µM (inactive). Moreover, the IC50 under setting [1] is more than 100 µM. Under setting [2], this compound returned an IC90 of more than 100 µM. This compound also showed an IC90 under setting [3] of more than 100 µM.

`CCOC(=O)c1c(C)n(-c2ccccc2)c2ccc(OCCN(C)C)cc12`: the 50% inhibitory concentration (IC50) was 5.45 µM. This compound came in with an IC50 under setting [1] of 62 µM. Besides, the IC90 under setting [2] is more than 100 µM. The IC90 under setting [3] was determined as 21.7 µM.

On to `Cc1ccc(-n2c(SCC(=O)NCc3ccco3)nc3sc4c(c3c2=O)CC(C)(C)SC4)cc1`, for which the IC50 is > 100 µM (inactive). Under setting [1], this compound came in with an IC50 of more than 100 µM. Under setting [2], this compound registered a 90% effect concentration (IC90) of more than 100 µM. The same compound showed an IC90 under setting [3] of more than 100 µM.

For `COc1cc2cnc(-c3ccsc3)c(-c3ccc(F)cc3)c2cc1OC`, the IC50 was > 100 µM (inactive). The same compound came in with a concentration for half-maximal inhibition (IC50) under setting [1] of more than 100 µM. The compound further registered an IC90 under setting [2] of more than 100 µM. The compound also yielded a 90% effect concentration (IC90) under setting [3] of more than 100 µM.

As to `Cc1ccccc1NC(=O)c1ccc(CN(c2ccccc2)S(=O)(=O)c2ccccc2)cc1`, the IC50 was > 100 µM (inactive). The compound further gave a 50% inhibitory concentration (IC50) under setting [1] of more than 100 µM. Also, the IC90 under setting [2] was more than 100 µM. For the same compound, the IC90 under setting [3] is more than 100 µM.

On to `CCOc1ccc(-c2nnc(-c3ccc(OC)cc3)o2)cc1`, for which the half-maximal inhibitory concentration (IC50) is 4.65 µM. Further, the IC50 under setting [1] is 35.6 µM. Further, the IC90 under setting [2] was more than 100 µM. The compound also showed an IC90 under setting [3] of more than 100 µM.

Turning to `COCCCn1c(=O)/c(=C\c2ccccc2OC(C)C)s/c1=C(/C#N)C(=O)Nc1ccc(C(=O)O)cc1`, the IC50 is 5.19 µM. The compound further displayed an IC50 under setting [1] of 13.6 µM. Besides, under setting [2], the 90% effect concentration (IC90) is more than 100 µM. The same compound came in with a 90% effect concentration (IC90) under setting [3] of 18.5 µM.

For `N#Cc1ccccc1/C=N/Nc1nc(-c2ccccc2)c2cc(Br)ccc2n1`, the IC50 was > 100 µM (inactive). The half-inhibitory concentration (IC50) under setting [1] is more than 100 µM. Under setting [2], this compound displayed an IC90 of more than 100 µM. Further, under setting [3], the concentration for an effect of 90% (IC90) was more than 100 µM.

With `Cc1ccn2c(CNCCn3nc(C)cc3C)c(C(=O)N3CCCCCC3)nc2c1`, the IC50 is > 100 µM (inactive). Further, the IC50 under setting [1] was more than 100 µM. This compound returned a 90% effect concentration (IC90) under setting [2] of more than 100 µM. The compound further showed a 90% effect concentration (IC90) under setting [3] of more than 100 µM.

For `CCOC(=O)c1[nH]c2ccccc2c1NC(=O)Nc1ccc(OC)cc1`, the IC50 is > 100 µM (inactive). The same compound had a concentration for half-maximal inhibition (IC50) under setting [1] of more than 100 µM. Further, the IC90 under setting [2] is more than 100 µM. Under setting [3], this compound gave an IC90 of more than 100 µM.

`CCOc1cc(CNC(C)C)c(Cl)cc1OCC(=O)NCCc1ccccc1`: the IC50 was > 100 µM (inactive). Besides, under setting [1], the IC50 was more than 100 µM. For the same compound, the IC90 under setting [2] is more than 100 µM. This compound also had an IC90 under setting [3] of more than 100 µM.
